Measured values: ChEMBL document CHEMBL2074360, “Sequence analysis and functional characterization of the 5'-flanking region of the rat multidrug resistance protein 2 (mrp2) gene” (Biochem Biophys Res Commun, 1998)

Columns and labels:
[1] = target: T1, ATP-binding cassette sub-family C member 2 (Rattus norvegicus, UniProt Q63120); test: TP_TRANSPORTER: Northern blot from H4IIE rat hepatoma cells; format: functional, cell-based
[2] = target: T1, ATP-binding cassette sub-family C member 2; test: TP_TRANSPORTER: Western blot, H4IIE rat hepatoma cells; format: functional, cell-based

T1 sequence (Q63120 whole entry): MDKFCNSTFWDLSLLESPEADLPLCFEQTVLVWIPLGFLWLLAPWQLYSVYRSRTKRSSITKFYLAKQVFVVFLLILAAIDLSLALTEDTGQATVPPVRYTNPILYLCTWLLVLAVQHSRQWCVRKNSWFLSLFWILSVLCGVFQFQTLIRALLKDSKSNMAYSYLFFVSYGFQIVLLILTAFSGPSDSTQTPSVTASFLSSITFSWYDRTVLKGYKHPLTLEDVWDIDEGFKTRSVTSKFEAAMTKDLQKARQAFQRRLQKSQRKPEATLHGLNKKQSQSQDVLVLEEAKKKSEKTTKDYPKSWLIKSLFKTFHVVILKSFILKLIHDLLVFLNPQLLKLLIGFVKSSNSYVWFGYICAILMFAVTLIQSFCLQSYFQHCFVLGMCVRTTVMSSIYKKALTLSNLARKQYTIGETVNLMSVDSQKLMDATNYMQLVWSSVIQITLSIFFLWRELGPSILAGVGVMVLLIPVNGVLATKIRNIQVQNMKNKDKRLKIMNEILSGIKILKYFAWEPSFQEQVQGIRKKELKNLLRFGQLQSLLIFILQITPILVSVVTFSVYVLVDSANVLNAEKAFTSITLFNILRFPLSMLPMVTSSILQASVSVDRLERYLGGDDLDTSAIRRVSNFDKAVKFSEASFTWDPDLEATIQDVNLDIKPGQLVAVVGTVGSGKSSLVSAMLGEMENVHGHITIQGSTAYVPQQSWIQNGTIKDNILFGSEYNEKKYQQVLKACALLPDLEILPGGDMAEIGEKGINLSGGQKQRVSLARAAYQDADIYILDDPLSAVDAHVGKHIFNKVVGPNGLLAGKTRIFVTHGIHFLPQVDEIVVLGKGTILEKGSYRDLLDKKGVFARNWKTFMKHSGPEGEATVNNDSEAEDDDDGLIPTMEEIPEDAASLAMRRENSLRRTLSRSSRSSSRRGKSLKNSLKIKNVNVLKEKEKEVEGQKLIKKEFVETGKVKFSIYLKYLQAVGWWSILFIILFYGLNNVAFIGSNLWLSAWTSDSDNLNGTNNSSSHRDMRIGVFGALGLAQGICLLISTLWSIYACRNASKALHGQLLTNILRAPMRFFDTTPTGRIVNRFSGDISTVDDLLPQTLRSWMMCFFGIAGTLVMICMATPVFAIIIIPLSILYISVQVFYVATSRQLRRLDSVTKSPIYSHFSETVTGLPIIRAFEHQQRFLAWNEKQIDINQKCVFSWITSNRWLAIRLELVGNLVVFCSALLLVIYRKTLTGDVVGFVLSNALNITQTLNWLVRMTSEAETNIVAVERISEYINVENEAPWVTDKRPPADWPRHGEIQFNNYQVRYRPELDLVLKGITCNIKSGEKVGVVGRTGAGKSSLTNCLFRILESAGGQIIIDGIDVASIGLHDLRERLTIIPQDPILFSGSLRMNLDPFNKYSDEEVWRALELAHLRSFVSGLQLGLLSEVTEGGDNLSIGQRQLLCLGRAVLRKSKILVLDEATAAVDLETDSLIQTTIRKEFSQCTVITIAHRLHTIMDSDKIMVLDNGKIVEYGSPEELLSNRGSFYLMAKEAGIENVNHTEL

SMILES	Activity [1]	Activity [2]
C#C[C@]1(O)CC[C@H]2[C@@H]3CCc4cc(O)ccc4[C@H]3CC[C@@]21C [ETHINYL ESTRADIOL]	inducer [+]	inducer [+]
CCC1(c2ccccc2)C(=O)NC(=O)NC1=O [PHENOBARBITAL]	inducer [+]	inducer [+]
